Paper PMC10461232, “Structure-Based Design of Transport-Specific Multitargeted One-Carbon Metabolism Inhibitors in Cytosol and Mitochondria” (Journal of Medicinal Chemistry, 2023)

Columns and labels:
KB tumor cells = assay: Metabolite rescue of growth inhibition in KB tumor cells; type: cell-based, human; conditions: serine- and glycine-free medium, adenosine 60 μM
Text: To confirm the targeted pathways for the pyrrolo[3,2-d]pyrimidine antifolates in tumor cells, we treated KB human tumor cells cultured in serine- and glycine-free media with the pyrrolo[3,2-d]pyrimidine compounds (4–9, 11–16) to test for the rescue by added nucleosides and glycine. Results were compared to those for AGF94, a pyrrolo[2,3-d]pyrimidine antifolate that inhibits GARFTase without effects on SHMT2,[69] and to compounds 1, 2, and 3, documented inhibitors of mitochondrial C1 metabolism and de novo purine biosynthesis in human tumor cells.[36] The results are shown in Figures 15 and S11 (Supplemental Information). […]
For some experiments with KB tumor cells, cells were cultured in serine-, glycine-, and folate-free RPMI 1640 (Fisher Scientific), supplemented with 10% dialyzed fetal bovine serum, antibiotics, 25 nM leucovorin, and 2 mM L-glutamine. In vitro growth inhibition was measured (above), without additions, or in the presence of folic acid (200 nM), or thymidine (10 μM), adenosine (60 μM), 5-aminoimidazole-4-carboxamide (AICA) (320 μM), and/or glycine (130 μM) to establish the inhibitory effects of the antifolate drugs on de novo thymidylate synthase versus de novo purine nucleotide biosynthesis (GARFTase and AICARFTase) or mitochondrial C1 metabolism at SHMT2.[36],[63],[64],[68],[69] […]

SHMT2 = molecular target: T1, SHMT2 (Homo sapiens, UniProt P34897); assay: SHMT2 inhibition assay coupled with MTHFD2, Ki; type: biochemical; conditions: purified His-SHMT2, 50 μM THF, 25 °C; mean (SD), at least 3 replicates
T1 construct: made in house; host or cells: E. coli Rosetta (DE3)pLysS
T1 sequence (P34897 30-504): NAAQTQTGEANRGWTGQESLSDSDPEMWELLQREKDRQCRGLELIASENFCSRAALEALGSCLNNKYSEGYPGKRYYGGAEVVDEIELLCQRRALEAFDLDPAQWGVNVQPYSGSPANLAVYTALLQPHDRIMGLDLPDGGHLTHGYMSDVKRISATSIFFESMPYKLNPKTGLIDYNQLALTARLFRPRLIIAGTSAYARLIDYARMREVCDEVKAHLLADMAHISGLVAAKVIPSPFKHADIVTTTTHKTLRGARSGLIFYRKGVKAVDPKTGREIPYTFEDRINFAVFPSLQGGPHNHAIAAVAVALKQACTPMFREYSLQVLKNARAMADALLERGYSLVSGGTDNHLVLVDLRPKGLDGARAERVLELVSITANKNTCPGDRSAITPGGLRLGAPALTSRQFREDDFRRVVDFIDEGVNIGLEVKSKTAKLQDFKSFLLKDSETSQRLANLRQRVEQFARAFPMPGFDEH
Description: (§1) MTHFD2 activities were assayed by a reaction with methylene THF and NAD^+. NADH production was measured by fluorescence (excitation 340 nm, emission 480 nm). Reaction conditions included 100 nM MTHFD2, 5 μM methylene THF, and concentrations of small-molecule inhibitor ranging from 0.02 nM to 2000 nM; NAD^+ (2.5 mM) was added to initiate the reaction. The reaction buffer consisted of 50 mM Tris-HCl, pH 7.5, 250 mM NaCl, 5 mM magnesium chloride, 5% glycerol, and 0.5 mM TCEP. […] To assay SHMT1 or SHMT2 (SHMT1/2) enzymes, a coupled reaction with His-MTHFD2 in 200-fold molar excess was used where the production of NADH was monitored by fluorescence with excitation at 360 nm and emission at 470 nm at 25 °C. The reactions contained 5 nM His-SHMT1/2, 50 μM THF, 20 mM serine, 10 μM His-MTHFD2, 2.5 mM NAD^+, and a range of inhibitor concentrations (final concentrations). The reactions were performed in buffer containing 20 mM sodium phosphate, pH 7.5, 100 mM KCl, 0.2 mM EDTA, and 5 mM β-Me. […] To calculate IC50 values for each inhibitor, initial velocities were graphed as a function of inhibitor concentrations and fit with a three-parameter nonlinear regression (GraphPad Prism 8.0). The equation [Ki = IC50/([S]/KM + 1)] was used to convert IC50’s to Ki values.

SHMT1 = molecular target: T2, SHMT1 (Homo sapiens, UniProt P34896); assay: SHMT1 inhibition assay coupled with MTHFD2, Ki; type: biochemical; conditions: purified His-SHMT1, 50 μM THF, 25 °C; mean (SD), at least 3 replicates
T2 construct: full-length SHMT1 with an N-terminal His6-tag; made in house; host or cells: E. coli Rosetta (DE3)pLysS
T2 sequence (P34896 1-483): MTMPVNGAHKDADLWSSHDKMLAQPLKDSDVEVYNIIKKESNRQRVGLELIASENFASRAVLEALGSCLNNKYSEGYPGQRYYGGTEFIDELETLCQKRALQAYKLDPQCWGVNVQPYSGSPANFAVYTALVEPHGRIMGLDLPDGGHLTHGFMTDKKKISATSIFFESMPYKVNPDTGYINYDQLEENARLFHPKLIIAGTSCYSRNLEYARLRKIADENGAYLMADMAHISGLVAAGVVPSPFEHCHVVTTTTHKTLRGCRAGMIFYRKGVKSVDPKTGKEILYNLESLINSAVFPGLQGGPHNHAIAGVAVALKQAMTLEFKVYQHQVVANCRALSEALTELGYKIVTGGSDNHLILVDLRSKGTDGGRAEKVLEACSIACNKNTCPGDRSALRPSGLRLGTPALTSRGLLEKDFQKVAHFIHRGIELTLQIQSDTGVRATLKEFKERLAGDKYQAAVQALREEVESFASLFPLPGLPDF
Description: Kinetic measurements were recorded in triplicate using a flat, black-bottom, black-walled 96-well plate (Greiner Bio-One, 655900) and a BioTek Synergy Neo2 Plate Reader. […] To assay SHMT1 or SHMT2 (SHMT1/2) enzymes, a coupled reaction with His-MTHFD2 in 200-fold molar excess was used where the production of NADH was monitored by fluorescence with excitation at 360 nm and emission at 470 nm at 25 °C. The reactions contained 5 nM His-SHMT1/2, 50 μM THF, 20 mM serine, 10 μM His-MTHFD2, 2.5 mM NAD^+, and a range of inhibitor concentrations (final concentrations). The reactions were performed in buffer containing 20 mM sodium phosphate, pH 7.5, 100 mM KCl, 0.2 mM EDTA, and 5 mM β-Me. A BioTek Synergy Neo2 Plate Reader was used to record kinetic measurements in triplicate in a UV-transparent 96-well plate (Costar 3635) for GARFTase and AICARFTase assays and a black-well, black-bottom 96-well plate (Corning 3603). To calculate IC50 values for each inhibitor, initial velocities were graphed as a function of inhibitor concentrations and fit with a three-parameter nonlinear regression (GraphPad Prism 8.0). The equation [Ki = IC50/([S]/KM + 1)] was used to convert IC50’s to Ki values.

human ATIC = molecular target: T3, human ATIC (Homo sapiens, UniProt P31939); assay: AICARFTase (ATIC) inhibition assay, Ki; type: biochemical; conditions: purified His-ATIC, AICARFTase activity, 50 μM 10-formyl THF, 25 °C; mean (SD), at least 3 replicates
T3 construct: N-terminal His6-tagged full-length human ATIC; made in house; host or cells: E. coli Rosetta (DE3)pLysS
Description: The cells were grown at 37 °C in 1 L cultures of LB media containing […] and […] until OD600 reached 0.6. Protein expression was induced by the addition of isopropyl β-D1-thiogalactopyranoside (IPTG, 500 μM).
His-ATIC was purified by Ni-NTA chromatography (Gold Biotechnology).[36] […] His-ATIC was eluted in 1 column volume fractions, 5 times with buffer containing 300 mM imidazole, 25 mM Tris-HCl, pH 7.5, 300 mM NaCl, and 5 mM β-Me. Size exclusion chromatography on a Superdex 200 16/60 (GE Healthcare) column was used for final purification using 20 mM Tris-HCl, pH 7.5, 150 mM NaCl, 50 mM KCl, 5 mM EDTA, and 5 mM dithiothreitol.
as §1

human GARFTase = molecular target: T4, human GARFTase (Homo sapiens, UniProt P22102); assay: GARFTase inhibition assay, Ki (10-formyl THF to THF, absorbance 298 nm); type: biochemical; conditions: purified His-GARFTase, 40 μM 10-formyl THF, 37 °C; mean (SD), at least 3 replicates
T4 construct: formyltransferase domain of human GARFTase (residues 808–1010); made in house; host or cells: E. coli Rosetta (DE3)pLysS
T4 sequence (P22102 808-1010): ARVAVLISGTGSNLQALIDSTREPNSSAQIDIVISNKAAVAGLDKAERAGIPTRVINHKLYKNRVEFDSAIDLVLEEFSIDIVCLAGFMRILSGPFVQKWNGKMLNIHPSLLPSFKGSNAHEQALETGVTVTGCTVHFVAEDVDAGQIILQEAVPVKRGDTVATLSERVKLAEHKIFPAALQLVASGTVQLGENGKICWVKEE

D4 (FRβ) CHO cells = conditions: classic antifolates, CHO cells expressing human FRβ; previously published; cited from earlier work
PC43-10 (RFC) CHO cells = conditions: classic antifolates, CHO cells expressing human RFC; previously published; cited from earlier work
KB (RFC/PCFT/FRα) cells = assay: Growth inhibition, KB nasopharyngeal carcinoma cells; type: cell-based, human; conditions: Homo sapiens, KB, folate-free RPMI 1640, 2 nM leucovorin, mean (SE)
Description: The CHO cells were cultured in α-minimal essential medium (MEM) supplemented with 10% bovine calf serum (Fisher Scientific), penicillin (1000 U/mL)/streptomycin (1000 μg/mL), and 2 mM L-glutamine at 37 °C with 5% CO2. All of the R2 transfected cells (PC43-10, RT16, R2/PCFT4) were cultured in complete α-MEM media plus 1 mg/mL G418. Prior to the cytotoxicity assays (see below), RT16 and D4 cells were cultured for 3 days in complete folate-free RPMI 1640 (without added folate), and R2/PCFT4 and R2 cells were cultured in complete folate-free RPMI 1640 supplemented with dialyzed fetal bovine serum (Fisher Scientific) and 25 nM leucovorin plus 1 mg/mL G418. KB cells were routinely cultured in folate-free RPMI 1640 medium, supplemented with 10% fetal bovine serum (Fisher Scientific), penicillin-streptomycin solution, and 2 mM L-glutamine at 37 °C with 5% CO2.
For growth inhibition studies, cells (CHO, KB) were plated in 96-well dishes (∼2500–5000 cells/well, total volume of 200 μL medium) over a range of antifolate concentrations.[69],[77] The medium was folate-free RPMI 1640 with 10% dialyzed serum and antibiotics supplemented with 25 nM leucovorin for experiments with R2, PC43-10, and R2/PCFT4 cells. For experiments with RT16, D4, and KB cells, cells were cultured in folate-free RPMI medium with 10% dialyzed fetal bovine serum and antibiotics; the medium was supplemented with 2 nM leucovorin. […] Incubations were routinely for up to 96 h. Viable cells (reflecting cell viability) were assayed with Cell Titer Blue reagent (Promega, Madison, WI), with fluorescence measured (590 nm emission, 560 nm excitation) with a fluorescence plate reader.

RT16 (FRα) CHO cells = conditions: classic antifolates, CHO cells expressing human FRα; previously published; cited from earlier work

T3 sequence (P31939 whole entry): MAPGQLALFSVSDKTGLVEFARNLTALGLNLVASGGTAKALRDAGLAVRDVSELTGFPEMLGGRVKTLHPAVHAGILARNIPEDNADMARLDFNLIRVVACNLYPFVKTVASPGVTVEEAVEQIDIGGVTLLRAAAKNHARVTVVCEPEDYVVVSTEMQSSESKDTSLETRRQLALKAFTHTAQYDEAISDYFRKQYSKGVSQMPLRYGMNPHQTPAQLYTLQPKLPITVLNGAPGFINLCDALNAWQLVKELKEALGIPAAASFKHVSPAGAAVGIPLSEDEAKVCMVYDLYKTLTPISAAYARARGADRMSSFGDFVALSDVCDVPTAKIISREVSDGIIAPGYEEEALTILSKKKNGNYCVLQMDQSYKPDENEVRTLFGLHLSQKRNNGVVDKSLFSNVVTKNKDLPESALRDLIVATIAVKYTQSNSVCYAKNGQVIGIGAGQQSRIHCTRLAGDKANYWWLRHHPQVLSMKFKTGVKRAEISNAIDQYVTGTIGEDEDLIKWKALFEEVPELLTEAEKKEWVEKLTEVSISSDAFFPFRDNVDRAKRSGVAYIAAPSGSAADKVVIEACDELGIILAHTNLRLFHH

In the case of `Nc1nc2[nH]c(CCCc3ccc(C(=O)N[C@@H](CCC(=O)O)C(=O)O)s3)cc2c(=O)[nH]1` [AGF94, (S)-2-({5-[3-(2-amino-4-oxo-4,7-dihydro-3H-pyrrolo[2,3-d]pyrimidin-6-yl)-propyl]-thiophene-2-carbonyl}-amino)-pentanedioic acid], the “effect of adenosine alone on growth inhibition” value (KB tumor cells) is reported as “completely reversed”.
`CN(Cc1cnc2nc(N)nc(N)c2n1)c1ccc(C(=O)N[C@@H](CCC(=O)O)C(=O)O)cc1` [MTX, methotrexate] gave a Ki (SHMT2) of 98 ± 17 µM and a Ki (SHMT1) greater than 200 µM.
For `C#CCC(Cc1cnc2nc(N)nc(N)c2n1)c1ccc(C(=O)N[C@@H](CCC(=O)O)C(=O)O)cc1` (stereo partly drawn) [PDX, N-(4-{1-[(2,4-diaminopteridin-6-yl)methyl]but-3-yn-1-yl}benzoyl)-L-glutamic acid], the Ki (SHMT2) was greater than 200 µM, the Ki (SHMT1) was greater than 200 µM and the Ki (human ATIC) was greater than 200 µM. The Ki (human GARFTase) was greater than 150 µM, the IC50 (D4 (FRβ) CHO cells) was 0.0025 µM and the IC50 (PC43-10 (RFC) CHO cells) was 0.00069 µM. The IC50 (KB (RFC/PCFT/FRα) cells) was 0.00047 µM and the IC50 (RT16 (FRα) CHO cells) was 0.043 µM.
With `Nc1nc2[nH]cc(CCc3ccc(C(=O)N[C@@H](CCC(=O)O)C(=O)O)cc3)c2c(=O)[nH]1` [PMX, N-{4-[2-(2-amino-3,4-dihydro-4-oxo-7H-pyrrolo[2,3-d]pyrimidin-5-yl)ethyl]benzoyl}-L-glutamic acid] the Ki (SHMT2) was greater than 200 µM and the Ki (SHMT1) was greater than 200 µM.
